Data published in paper PMC7997032, “Organic synthesis and anti-influenza A virus activity of cyclobakuchiols A, B, C, and D” (PLoS ONE, 2021).
Values joined by “and” are separate entries in the source; they are usually repeats but may differ in a detail not shown here. Equal entries are not always repeated.

System: MDCK cells
Assay: MTT assay (cytotoxicity against MDCK cells)
Type: cell-based, canine
Details: MDCK cells; for MTT, DMSO as 100 (DMSOを 100として), ave / MTT 72h AVE (DMSO = 100): 72h; for MTT, DMSO as 100 (DMSOを 100として), ave: mean of 5 wells (200409 #1 and #3); for MTT 72h AVE (DMSO = 100): summary AVE; for MTT 24h, AVE (DMSO as 100) / MTT 24h, 570-650nm, DMSO as 100, ave: mean of 5 wells from 3 experiments; for MTT 24h, AVE (DMSO as 100): relative to DMSO = 100; for MTT 24h, 570-650nm, DMSO as 100, single replicate: individual wells (200331; 200403 #2 1,2; 200403 #3 1,2); for 570-650nm (MTT absorbance, single wells) / 570-650nm ave (mean MTT absorbance of 5 wells) / MTT absorbance with DMSO as 100 (DMSOを 100として), single wells: MTT 72h; for 570-650nm (MTT absorbance, single wells): experiments #1-#3, duplicate wells; for MTT absorbance with DMSO as 100 (DMSOを 100として), single wells: relative to mean of DMSO
Protocol: 1–5 (0.8–100 μM) were prepared in DMSO (100 μM, 1%; 50 μM, 0.5%; 25 μM, 0.25%; 12.5 μM, 0.125%; 6.3 μM, 0.063%; 3.1 μM, 0.031%; 1.6 μM, 0.016%; 0.8 μM, 0.008%) and mixed with infection medium (DMEM supplemented with 1% bovine serum albumin (BSA; Wako), P/S and 4 mM L-glutamine). The resulting mixture was added to the cells and incubated for 24 or 72 h at 37°C in the presence of 5% CO2. After incubation, cell viability was determined using an MTT cell count kit (Nacalai Tesque) according to the manufacturer’s instructions, as previously described.

[1] = 3.13uM (3.125uM in summary block)

SMILES	MTT, DMSO as 100 (DMSOを 100として), ave (0.78uM)	MTT, DMSO as 100 (DMSOを 100として), ave (1.56uM)	MTT 72h AVE (DMSO = 100) (6.25 (uM))	MTT 72h AVE (DMSO = 100) (12.5 (uM))	MTT 72h AVE (DMSO = 100) (25 (uM))	MTT 72h AVE (DMSO = 100) (50 (uM))	MTT 72h AVE (DMSO = 100) (100 (uM))	MTT 24h, AVE (DMSO as 100) (0.78 uM)	MTT 24h, 570-650nm, DMSO as 100, single replicate (3.125uM)	MTT 24h, 570-650nm, DMSO as 100, ave (3.125uM)	MTT 24h, 570-650nm, DMSO as 100, single replicate (6.25uM)	MTT 24h, 570-650nm, DMSO as 100, ave (6.25uM)	MTT 24h, 570-650nm, DMSO as 100, single replicate (12.5uM)	MTT 24h, 570-650nm, DMSO as 100, ave (12.5uM)	MTT 24h, 570-650nm, DMSO as 100, single replicate (25uM)	MTT 24h, 570-650nm, DMSO as 100, ave (25uM)	MTT 24h, 570-650nm, DMSO as 100, single replicate (50uM)	MTT 24h, 570-650nm, DMSO as 100, ave (50uM)	MTT 24h, 570-650nm, DMSO as 100, single replicate (100uM)	MTT 24h, 570-650nm, DMSO as 100, ave (100uM)	other results
C=C[C@@](C)(/C=C/c1ccc(O)cc1)CCC=C(C)C [(+)-(S)-baku.]	101.639	110.926	135.974	116.119	164.273	107.359	28.7987	106.986	107.294 and 97.5488 and 102.772 and 101.94 and 95.2685	100.964	108.582 and 98.5976 and 113.546 and 113.49 and 101.426	107.128	102.57 and 93.2171 and 103.913 and 112.439 and 104.302	103.288	108.875 and 109.835 and 96.176 and 115.944 and 106.769	107.52	119.708 and 122.77 and 91.784 and 117.912 and 113.767	113.188	79.067 and 84.0157 and 140.292 and 89.6781 and 39.1391	86.4384	MTT 72h AVE (DMSO = 100) (3.13 (uM)): 132.176; MTT 24h, 570-650nm, DMSO as 100, single replicate (1.56uM): 103.696 and 92.7462 and 106.461 and 104.983 and 94.4526; MTT 24h, 570-650nm, DMSO as 100, ave (1.56uM): 100.468; 570-650nm (MTT absorbance, single wells) (0.78uM): 0.9216 and 1.0625 and 0.5565 and 0.8595 and 0.8044 and 0.7519; 570-650nm (MTT absorbance, single wells) (1.56uM): 0.9826 and 0.8065 and 0.7089 and 0.7456 and 0.6067 and 0.9846; 570-650nm ave (mean MTT absorbance of 5 wells) (3.125uM): 0.8903; MTT absorbance with DMSO as 100 (DMSOを 100として), single wells (3.125uM): 116.345 and 146.749 and 122.432 and 152.375 and 122.981; 570-650nm (MTT absorbance, single wells) [1]: 0.8284 and 0.7837 and 0.9885 and 0.8247 and 1.0264 and 0.8069; 570-650nm ave (mean MTT absorbance of 5 wells) (6.25uM): 0.9301; 570-650nm (MTT absorbance, single wells) (6.25uM): 0.9089 and 0.9123 and 0.7679 and 0.9049 and 1.1563 and 0.9272; MTT absorbance with DMSO as 100 (DMSOを 100として), single wells (6.25uM): 133.377 and 112.266 and 132.295 and 169.05 and 132.88; 570-650nm ave (mean MTT absorbance of 5 wells) (12.5uM): 0.9243; 570-650nm ave (mean MTT absorbance of 5 wells) (25uM): 1.2355; 570-650nm (MTT absorbance, single wells) (25uM): 1.2252 and 1.1953 and 1.2444 and 1.2282 and 1.1748 and 1.3049; MTT absorbance with DMSO as 100 (DMSOを 100として), single wells (25uM): 165.457 and 163.303 and 156.203 and 173.501 and 162.904; 570-650nm ave (mean MTT absorbance of 5 wells) (50uM): 0.9798; 570-650nm ave (mean MTT absorbance of 5 wells) (100uM): 0.2711; 570-650nm (MTT absorbance, single wells) (100uM): 0.1982 and 0.2036 and 0.3213 and 0.2978 and 0.3355 and 0.2029; MTT absorbance with DMSO as 100 (DMSOを 100として), single wells (100uM): 34.1264 and 31.6304 and 35.6346 and 21.5507 and 21.0515
C=C[C@]1(C)CC[C@H](C(C)(C)O)[C@@H](c2ccc(O)cc2)C1 [Cyclo. C]	97.7369	116.194	130.219	123.122	141.455	116.495	142.83	97.4262	98.8583 and 80.6936 and 68.9227 and 107.532 and 92.5261	89.7067	105.442 and 92.9243 and 77.243 and 111.801 and 97.5139	96.9849	112.407 and 88.505 and 78.5484 and 110.111 and 102.316	98.3774	89.9468 and 93.8621 and 86.7762 and 109.435 and 109.619	97.9279	107.424 and 104.395 and 78.3927 and 112.047 and 113.734	103.198	113.671 and 119.568 and 104.628 and 127.474 and 126.723	118.413	MTT, DMSO as 100 (DMSOを 100として), ave (3.125uM): 124.106; MTT 24h, AVE (DMSO as 100) (1.56 uM): 89.4582; 570-650nm (MTT absorbance, single wells) (0.78uM): 0.9938 and 0.7395 and 0.7311 and 0.6372 and 0.8862 and 0.7504; 570-650nm (MTT absorbance, single wells) (1.56uM): 0.9464 and 0.9776 and 0.7533 and 0.5791 and 0.9528 and 0.9569; 570-650nm (MTT absorbance, single wells) [1]: 0.9669 and 0.8575 and 0.7479 and 0.8256 and 0.9 and 0.8489; 570-650nm ave (mean MTT absorbance of 5 wells) (6.25uM): 0.8907; 570-650nm (MTT absorbance, single wells) (6.25uM): 0.8518 and 0.8346 and 0.7398 and 1.0173 and 1.01 and 0.9632; MTT absorbance with DMSO as 100 (DMSOを 100として), single wells (6.25uM): 122.018 and 108.158 and 148.728 and 147.661 and 124.532; 570-650nm ave (mean MTT absorbance of 5 wells) (12.5uM): 0.98; 570-650nm (MTT absorbance, single wells) (12.5uM): 0.9561 and 0.8827 and 0.8467 and 1.0013 and 1.1241 and 1.0452; MTT absorbance with DMSO as 100 (DMSOを 100として), single wells (12.5uM): 125.798 and 106.375 and 131.313 and 141.226 and 110.898; 570-650nm ave (mean MTT absorbance of 5 wells) (25uM): 1.064; 570-650nm (MTT absorbance, single wells) (25uM): 0.9926 and 0.9592 and 0.9724 and 1.0619 and 1.1012 and 1.2247; MTT absorbance with DMSO as 100 (DMSOを 100として), single wells (25uM): 141.191 and 129.291 and 162.837 and 146.417 and 127.536; 570-650nm ave (mean MTT absorbance of 5 wells) (50uM): 1.063; 570-650nm (MTT absorbance, single wells) (50uM): 1.1675 and 1.0763 and 1.0296 and 0.8397 and 1.1252 and 1.245; MTT absorbance with DMSO as 100 (DMSOを 100として), single wells (50uM): 92.0098 and 112.818 and 136.42 and 123.293 and 117.935; 570-650nm ave (mean MTT absorbance of 5 wells) (100uM): 1.345; 570-650nm (MTT absorbance, single wells) (100uM): 1.4551 and 1.3837 and 1.3254 and 1.1438 and 1.3954 and 1.4754; MTT absorbance with DMSO as 100 (DMSOを 100として), single wells (100uM): 121.487 and 140.775 and 156.707 and 148.21 and 146.968
